Experimental data as given in the supplement of paper PMC4862054.
Where “and” joins values, the source holds several entries; their conditions need not be identical. Equal entries are not always repeated.

What was measured:
Test in all cases: normalised viability (% of control), CellTiter-Blue; higher = more viable cells (about 100 = DMSO control)
Conditions in all cases: incubation time: 72 h
CAL-148 [1] = system: CAL-148
Method: (§1)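 DSRT, CellTiter-Blue viability, 72 h incubation. Signal is normalised to DMSO and benzethonium chloride controls. Value is the normalised response at dose 8.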

CAL-51 [2] = system: CAL-51
Method: as §1

CAL-85-1 [3] = system: CAL-85-1
Method: as §1

DU-4475 [4] = system: DU-4475
Method: as §1

HDQ-P1 [5] = system: HDQ-P1
Method: as §1

MDA-MB-453 [6] = system: MDA-MB-453
Method: as §1

CAL-148 [7] = system: CAL-148; remark: listed apart in the source
Method: (§2)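 DSRT, CellTiter-Blue viability, 72 h incubation. Signal is normalised to DMSO and benzethonium chloride controls. Value is the normalised response at dose 6.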

CAL-51 [8] = system: CAL-51; remark: listed apart in the source
Method: as §2

CAL-85-1 [9] = system: CAL-85-1; remark: listed apart in the source
Method: as §2

DU-4475 [10] = system: DU-4475; remark: listed apart in the source
Method: as §2

HDQ-P1 [11] = system: HDQ-P1; remark: listed apart in the source
Method: as §2

MDA-MB-453 [12] = system: MDA-MB-453; remark: listed apart in the source
Method: as §2

Row | SMILES | normalised viability (CAL-148 [1]) | normalised viability (CAL-51 [2]) | normalised viability (CAL-85-1 [3]) | normalised viability (DU-4475 [4]) | normalised viability (HDQ-P1 [5]) | normalised viability (MDA-MB-453 [6]) | normalised viability (CAL-148 [7]) | normalised viability (CAL-51 [8]) | normalised viability (CAL-85-1 [9]) | normalised viability (DU-4475 [10]) | normalised viability (HDQ-P1 [11]) | normalised viability (MDA-MB-453 [12])
1 | CO[C@@H]1[C@H](N(C)C(=O)c2ccccc2)C[C@H]2O[C@]1(C)n1c3ccccc3c3c4c(c5c6ccccc6n2c5c31)C(=O)NC4 [Midostaurin] (3000 nM) | 84.4% | 6.39% | 73.4% | 3.23% | 50.5% | 69.6% |  |  |  |  |  | 
2 | CO[C@@]12[C@H](COC(N)=O)C3=C(C(=O)C(C)=C(N)C3=O)N1C[C@@H]1N[C@@H]12 [Mitomycin C] (3000 nM) | 48.5% | 102% | 71.6% | 91.5% | 85.2% | 58.8% |  |  |  |  |  | 
3 | C/C(=C\c1csc(C)n1)[C@@H]1C[C@@H]2O[C@]2(C)CCC[C@H](C)[C@H](O)[C@@H](C)C(=O)C(C)(C)[C@@H](O)CC(=O)N1 [Ixabepilone] (300 nM) | 87.3% | 117% | 76.5% | 92.9% | 81.6% | 89.8% |  |  |  |  |  | 
4 | CCN(CC)CCCC(C)Nc1ccnc2cc(Cl)ccc12 (configuration not stated) [Chloroquine] (297 nM) | 95.9% | 93.4% | 96% | 85.2% | 118% | 100% |  |  |  |  |  | 
5 | COc1ccc(S(=O)(=O)Nc2cccnc2Nc2ccc(O)cc2)cc1 [ABT-751] (3000 nM) | 15% | 19% | 26.8% | 17.4% | 37.8% | 27.7% |  |  |  |  |  | 
6 | Cc1cc(Nc2nc(N[C@@H](C)c3ncc(F)cn3)ncc2Cl)[nH]n1 [AZD1480] (300 nM) | 106% | 98.8% | 106% | 89.3% | 122% | 94.2% |  |  |  |  |  | 
7 | CCNC(=O)CCC/C=C\C[C@@H]1[C@@H](/C=C/[C@@H](O)CCc2ccccc2)[C@H](O)C[C@@H]1O [Bimatoprost] (165 nM) |  |  |  |  |  |  | 94.6% | 116% | 96.4% | 97.6% | 81.4% | 102%
8 | CCNC(=O)c1noc(-c2cc(C(C)C)c(O)cc2O)c1-c1ccc(CN2CCOCC2)cc1 [NVP-AUY922] (300 nM) | 16.3% | 8.64% | 24.6% | 0.62% | 30.4% | 8.88% |  |  |  |  |  | 
9 | COc1cc(Nc2c(C#N)cnc3cc(OCCCN4CCN(C)CC4)c(OC)cc23)c(Cl)cc1Cl [Bosutinib] (300 nM) |  |  |  |  |  |  | 82.2% | 117% | 108% | 99.7% | 68.5% | 88.2%
10 | CC(O)(CS(=O)(=O)c1ccc(F)cc1)C(=O)Nc1ccc(C#N)c(C(F)(F)F)c1 (configuration not stated) [Bicalutamide] (300 nM) |  |  |  |  |  |  | 107% | 108% | 95% | 93.6% | 55% | 110%
11 | Nc1ccn([C@@H]2O[C@H](CO)[C@@H](O)C2(F)F)c(=O)n1 [Gemcitabine] (300 nM) | 34.9% | 15.7% | 43.2% | 39.8% | 82.1% | 44.1% |  |  |  |  |  | 
12 | C=CCN(/C=C1/C(=O)O[C@H](COC)[C@@]2(C)C1=C(O)C(=O)C1=C2[C@H](OC(C)=O)C[C@]2(C)C(=O)CC[C@@H]12)CC=C [PX-866] (3000 nM) | 108% | 107% | 102% | 95.4% | 70.2% | 114% |  |  |  |  |  | 
13 | C=CCn1c(=O)c2cnc(Nc3ccc(N4CCN(C)CC4)cc3)nc2n1-c1cccc(C(C)(C)O)n1 [MK1775] (300 nM) |  |  |  |  |  |  | 45.3% | 62.9% | 66.6% | 68.7% | 49.3% | 60%
14 | Cc1cn(-c2cc(NC(=O)c3ccc(C)c(Nc4nccc(-c5cccnc5)n4)c3)cc(C(F)(F)F)c2)cn1 [Nilotinib] (300 nM) |  |  |  |  |  |  | 94.6% and 101% | 109% and 112% | 92.1% and 86% | 90.1% and 113% | 47.2% and 70.8% | 94.5% and 91.4%
15 | CNC(=O)c1ccccc1Sc1ccc2c(/C=C/c3ccccn3)n[nH]c2c1 [Axitinib] (3000 nM) | 46% | 40.2% | 65.5% | 33.9% | 64.8% | 55.4% |  |  |  |  |  | 
16 | COc1ccc(S(=O)(=O)Nc2cccnc2Nc2ccc(O)cc2)cc1 [ABT-751] (300 nM) |  |  |  |  |  |  | 98.6% | 94.3% | 58.7% | 80.7% | 55.8% | 39.5%

Row | SMILES | normalised viability (CAL-148 [1]) | normalised viability (CAL-51 [2]) | normalised viability (CAL-85-1 [3]) | normalised viability (DU-4475 [4]) | normalised viability (HDQ-P1 [5]) | normalised viability (MDA-MB-453 [6]) | normalised viability (CAL-148 [7]) | normalised viability (CAL-51 [8]) | normalised viability (CAL-85-1 [9]) | normalised viability (DU-4475 [10]) | normalised viability (HDQ-P1 [11]) | normalised viability (MDA-MB-453 [12])
17 | CC1(C)CCC(c2ccc(Cl)cc2)=C(CN2CCN(c3ccc(C(=O)NS(=O)(=O)c4ccc(N[C@H](CCN5CCOCC5)CSc5ccccc5)c(S(=O)(=O)C(F)(F)F)c4)cc3)CC2)C1 [Navitoclax] (300 nM) |  |  |  |  |  |  | 90.4% | 99.9% | 75.2% | 47.2% | 50.2% | 78.1%
18 | CCNC(=O)CCC/C=C\C[C@@H]1[C@@H](/C=C/[C@@H](O)CCc2ccccc2)[C@H](O)C[C@@H]1O [Bimatoprost] (1650 nM) | 91.1% | 111% | 102% | 120% | 97.4% | 92.4% |  |  |  |  |  | 
19 | CC(C)(C)NC(=O)[C@H]1CC[C@H]2[C@@H]3CC[C@H]4NC(=O)C=C[C@]4(C)[C@H]3CC[C@]12C [Finasteride] (3000 nM) | 96.4% | 104% | 92.2% | 97% | 127% | 114% |  |  |  |  |  | 
20 | CC1(C)CCC(c2ccc(Cl)cc2)=C(CN2CCN(c3ccc(C(=O)NS(=O)(=O)c4ccc(N[C@H](CCN5CCOCC5)CSc5ccccc5)c(S(=O)(=O)C(F)(F)F)c4)cc3)CC2)C1 [Navitoclax] (3000 nM) | 71% | 95.3% | 87.8% | 20.1% | 43.5% | 70.3% |  |  |  |  |  | 
21 | CN(Cc1cnc2nc(N)nc(N)c2n1)c1ccc(C(=O)N[C@@H](CCC(=O)O)C(=O)O)cc1 [Methotrexate] (3000 nM) | 56.3% | 39.6% | 57.7% | 101% | 82.7% | 91.4% |  |  |  |  |  | 
22 | CC(C)C[C@H](NC(=O)[C@@H](COC(C)(C)C)NC(=O)[C@H](Cc1ccc(O)cc1)NC(=O)[C@H](CO)NC(=O)[C@H](Cc1c[nH]c2ccccc12)NC(=O)[C@H](Cc1cnc[nH]1)NC(=O)[C@@H]1CCC(=O)N1)C(=O)N[C@@H](CCCNC(=N)N)C(=O)N1CCC[C@H]1C(=O)NNC(N)=O [Goserelin] (300 nM) |  |  |  |  |  |  | 104% | 108% | 99.7% | 106% | 91.4% | 106%
23 | CNC(=O)c1ccccc1Sc1ccc2c(/C=C/c3ccccn3)n[nH]c2c1 [Axitinib] (300 nM) |  |  |  |  |  |  | 94% | 96.1% | 83.6% | 103% | 40.1% | 96.8%
24 | Cc1cc(Nc2nc(N[C@@H](C)c3ncc(F)cn3)ncc2Cl)[nH]n1 [AZD1480] (30 nM) |  |  |  |  |  |  | 103% | 113% | 91.3% | 109% | 78.1% | 117%
25 | CN(Cc1cnc2nc(N)nc(N)c2n1)c1ccc(C(=O)N[C@@H](CCC(=O)O)C(=O)O)cc1 [Methotrexate] (300 nM) |  |  |  |  |  |  | 66.8% | 48.6% | 68.7% | 110% | 69% | 95.2%
26 | Cn1cc(C2=C(c3cn(C4CCN(Cc5ccccn5)CC4)c4ccccc34)C(=O)NC2=O)c2ccccc21 [Enzastaurin] (3000 nM) | 69% | 88.6% | 85% | 87.3% | 89.8% | 53.6% |  |  |  |  |  | 
27 | CC(=O)[C@]1(O)Cc2c(O)c3c(c(O)c2[C@@H](O[C@H]2C[C@H](N)[C@H](O)[C@H](C)O2)C1)C(=O)c1ccccc1C3=O [Idarubicin] (300 nM) | 7.71% | 20.9% | 47.1% | 7.47% | 48.7% | 68.7% |  |  |  |  |  | 
28 | CCN(CC)CCCC(C)Nc1ccnc2cc(Cl)ccc12 (configuration not stated) [Chloroquine] (29.7 nM) |  |  |  |  |  |  | 89.9% | 88.5% | 92.7% | 116% | 123% | 98.8%
29 | CC(=O)[C@]1(O)Cc2c(O)c3c(c(O)c2[C@@H](O[C@H]2C[C@H](N)[C@H](O)[C@H](C)O2)C1)C(=O)c1ccccc1C3=O [Idarubicin] (30 nM) |  |  |  |  |  |  | 40.7% | 31.1% | 89.9% | 50% | 83.6% | 101%
30 | C=CCN(/C=C1/C(=O)O[C@H](COC)[C@@]2(C)C1=C(O)C(=O)C1=C2[C@H](OC(C)=O)C[C@]2(C)C(=O)CC[C@@H]12)CC=C [PX-866] (300 nM) |  |  |  |  |  |  | 116% | 110% | 103% | 93% | 75.8% | 112%
31 | CO[C@@H]1[C@H](N(C)C(=O)c2ccccc2)C[C@H]2O[C@]1(C)n1c3ccccc3c3c4c(c5c6ccccc6n2c5c31)C(=O)NC4 [Midostaurin] (300 nM) |  |  |  |  |  |  | 106% | 28.9% | 86.6% | 76% | 53.6% | 65.5%
32 | Cn1cc(C2=C(c3cn(C4CCN(Cc5ccccn5)CC4)c4ccccc34)C(=O)NC2=O)c2ccccc21 [Enzastaurin] (300 nM) |  |  |  |  |  |  | 79.2% | 92.3% | 90.2% | 77.5% | 45.9% | 80.6%
